Patent US20240226126A1, “COMPOSITIONS FOR TREATMENT OF PSORIASIS” (The Board of Trustees of the Leland Stanford Junior …, priority 2021, published 2024)
pIC50: −log10 of the molar value. “Also recorded” adds a separate entry of the source. Where two headings read alike, the source gives them in different places.

Key:
[1] = system: Human Primary keratinocytes; test: Cytokine response of TNF-α/IL-17 stimulated keratinocytes (Luminex); assay type: cell-based; conditions: TNF-α 10 ng/ml and IL-17 10 ng/ml, 48 hours
Experimental: Human Primary keratinocytes were purchased from Thermo Fisher. Keratinocytes were cultured in medium 154 supplemented with HKGS, split using TrypLE and neutralized using DMEM supplemented with 10% FBS. Cells were split to keep 20-80% confluency and not passaged above passage 5. Keratinocytes were detached using TrypLE Express, Trypsin Neutralizer solution was added and the detached cells transferred to a sterile conical tube. Cells were resuspended in 15 ml medium with HKGS supplemented (cat no S-001-K) but without hydrocortisone. The cells were pipetted up and down with a 10 ml pipette to ensure a homogeneous cell suspension.
Human primary keratinocytes detached as described above, were resuspended in PBS at 1×10^6 cells/ml and filtered through a 35 μm cell strainer. Cells were stained with CellTrace Violet at 5 μM for 20 minutes at 37° C., 5% CO2. After staining, DMEM supplemented with 10% FBS was added to stop staining and cells was incubated at 37° C., 5% CO2 for 5 minutes. After incubation, cells were washed with PBS 1× and resuspended in Medium 154 supplemented with HGKS without hydrocortisone at 6×10^5 cells/ml and 200 μl was added to wells in a 96-well flat bottom cell culture plate. Cells were incubated overnight at 37° C., 5% CO2/95% air. […]
Supernatants were analyzed for cytokines IL-6, IL-8, and CXCL1 using Luminex. […] Samples were analyzed on a Bio-Rad Luminex 200 analyzer. […]

Rac1V12 transgenic mice = test: Rac1V12 transgenic mouse model of psoriasis; assay type: in vivo
Experimental: Transgenic mice and mice for xenografting Rac1V12-transgenic mice were generated as previously described. For xenografting, NOD/SCID mice were used (NOD.CB17-PrkdcSCID/J mice; stock 001303; The Jackson Laboratory).
Topical formulation and administration. A rudimentary preparation of benzamil was tested using benzamil (6 mg/ml, benzamil, Sigma) in 100% ethanol. This solution was then topically applied through submerged and air-drying tails of mice under anesthesia, once daily for 15 days. Similarly, benzamil was suspended in water (2 mg/ml), then mixed into Vaseline, vortexed and centrifuged until a clear solution was obtained. A final formulation of benzamil is described in supplementary material and methods. For intraperitoneal injections, benzamil was dissolved at 2 mg/ml in water, and 0.7, 1.4 or 2.1 mg/kg was injected IP daily. For osmotic pump injections, Alzet osmotic pumps were used, (Alzet minipump 1002). Pumps were filled with 100 ul of benzamil in ethanol under sterile conditions, at a final dose of 2 mg/kg/day, and subcutaneous, inter-scapular implantations were performed under anesthesia. Pumps were replaced once for a total of 2×14 days treatment period.
Topical formulation of benzamil. A labrasol (88%) based formulation of benzamil was generated containing benzamil (1%, w/w), span-20 (1%) and cetyltrimethylammonium bromide (CTAB) (10%). Constituents were dissolved in ethyl alcohol, mixed well using vortex and sonication at 37° C. until a clear solution was obtained. Ethyl alcohol was evaporated in a Speedvac. The residue was suspended in Labrasol and homogenized to obtain the final formulation.
For a final formulation of benzamil (for use on human reconstructed skin), 52 ml water, 5.2 ml glycerin, 9.7 ml rice bran oil, 4 ml caprylic aid triglyceride, 6.2 g cetearyl alcohol, 8.6 g 50/50 mixture of cetearyl glucoside and cetearyl alcohol and 3.5 g cocoa butter was heated to 75° C. until dissolved, removed from heat, mixed using Cimarec 2 magnetic stir. At 45° C. […]

[2] = system: primary psoriasis keratinocytes (PSOKC); test: MTT proliferation assay, primary psoriasis keratinocytes; assay type: cell-based, human; conditions: for proliferation in PSOKCs: 10 μM
Experimental: MTT assays. 10000 third-passage adult keratinocytes per well, or 25000 for IC50 curves, were seeded on a collagen-coated 96 well plate, and incubated with 50/50 (Medium 154 and Keratinocyte—SFM medium, Invitrogen with Human Keratinocytes Growth Supplement, S-001-5, Invitrogen, and Medium 154 supplement M-154-6 500, Invitrogen) with 1% antibiotic-antimycotic (30-004-CI, Mediatech Inc) for 48 h. 10 ul MTT reagent (MTT proliferation assay, ATCC, Manassas, US) was added for 4 h, 100 ul detergent was added to each well for 4 hours, and absorbance read at 570 nm (Spectramax M5, Molecular Devices, US), normalized to cell-free control absorbance.
Small molecule inhibition. All small molecules were diluted into concentrated stock solutions (all except YM-244769 were made into 50 mM stock solutions) in DMSO, and stored in aliquots at −20 C. Aliquots were thawed, then diluted to a 1000× stock concentration, then added to media so that final DMSO concentration is 0.1%. All in vitro studies entailing small molecule inhibition were accessed over 24 hour incubation period.
Statistical analysis. Microrarray data was analyzed using the affy package from Bioconductor on R statistical software package. Other statistical analysis was performed using Graphpad Prism 7.03, and statistical tests (unpaired t-tests with Welch correction, paired t-test, Mann-Whitney unpaired test, and linear regression analysis with goodness of fit) and sample sizes are outlined in each figure legend. Components of signature for goodness of fit by linear regression analysis were extrapolated from the benzamil rank aggregation algorithm All error bars denotes standard error of the mean. For IC50 calculations, MTT data absorbance values were calculated for percent change from the 0.1% DMSO vehicle condition. A non-linear fitted curve [log (inhibitor) vs response (three parameters)] in GraphPad Prism 7 was used to determine IC50 values. For mouse and xenograft experiments, ad hoc power calculations were based on prior phenotypic characterization of these models. Transgenic mice were randomized from same litters when possible, or based on similar phenotypic disease severity, and all experiments were run in triplicates or more. Sample size of xenografts mice studies were based on patient sample availability and a predicted graft take rate of 80%. For all comparisons, p values of less than 0.05 were considered statistically significant. All tests were two-tailed unless specified in figure legends.
(§1) Small molecule inhibitors. 10 uM benzamil hydrochloride hydrate (Sigma B2417), 10 uM amiloride hydrochloride (Tocris 890) 10 uM zoniporide dihydrochloride (Tocis 2727), 10 nM YM-244769 (Tocris 4544), 10 uM SEA 0400 2-[4-[(2,5-944 difluorophenyl)methoxy]phenoxy]-5-ethoxyaniline) (Tocris 6164), 10 uM triamterene (Sigma-Aldrich T4143).

[3] = system: V12KC (primary keratinocytes transduced with V12 Rac1); test: Proliferation of V12 Rac1 transduced primary keratinocytes vs LacZ control; assay type: cell-based; conditions: Homo sapiens, Keratinocyte
PSOKCs = test: Intracellular pH assay (pHrodo red); assay type: cell-based, human; conditions: PSOKCs / primary keratinocytes overexpressing Rac1, 24 h, 10 uM; listed as Zoniporide
Experimental: Intracellular pH assays 25,000 were seeded per well of 96-well plate and allowed cells to settle and recover for 24 hrs. Small molecules or 0.1% DMSO vehicle control was added to culture media for 24 hours (n=6-8). Cells were washed once with 1× Live Cell Imaging Solution (LCIS) (ThermoFisher A14291DJ), and then incubated with pHrodo red (ThermoFisher P35372), PowerLoad (ThermoFisher P35372), in LCIS with added 1:5000 Hoechst (Life Technologies) for 30 min at 37 C 5% CO2 with corresponding small molecule added at same concentration used for 24 hour incubation.
as §1
Intracellular pH assays and standard curves. Cells were also washed 3 times with 1×LCIS with the last wash of 100 uL kept on cells. For generation of pH standard curve, additional wells (n=6-8) were treated as described with an addition of 0.1% DMSO vehicle for 24 hours. […] The 96-well plate was then read on a fluorescence microplate reader (Spectramax M5, Molecular Devices) with excitation/emission of […] and 361/497. […]

C=C(CC)C(=O)c1ccc(OCC(=O)O)c(Cl)c1Cl [Ethacrynic acid]
concentration with decrease of IL-8 [1]: 10 µM

Cc1cc(I)ccc1Nc1c(C(=O)NOCC2CC2)cc(F)c(F)c1F [PD198306]
concentration with decrease of CXCL1 [1]: 100 nM

N=C(N)NC(=O)c1nc(Cl)c(N)nc1N [amiloride]
psoriasiform hyperplasia (Rac1V12 transgenic mice; systemic): failed to demonstrate any effect
proliferation in PSOKCs [2]: not achieved by amiloride or triamterene; also recorded: not amiloride or triamterene reduced proliferation

NC(=NCc1ccccc1)NC(=O)c1nc(Cl)c(N)nc1N [benzamil]
pIC50 ([2]; cells from 5 psoriasis donors, read-out: IC50 on proliferation): ~6.00
pIC50 ([2]; range across donors, read-out: IC50 range in five psoriasis donor primary keratinocyte cultures): 5.34 to 10.00
pIC50 [3]: 6.00

C[C@H]1C[C@H]2[C@@H]3CCC4=CC(=O)C=C[C@]4(C)[C@@]3(F)[C@@H](O)C[C@]2(C)[C@@]1(O)C(=O)CCl [clobetasol]
epidermal thickness (Rac1V12 transgenic mice; topical, compared to vehicle): reduction in epidermal thickness

Nc1nc(N)c2nc(-c3ccccc3)c(N)nc2n1 [triamterene]
proliferation in PSOKCs [2]: not achieved by amiloride or triamterene; also recorded: not amiloride or triamterene reduced proliferation

N=C(N)NC(=O)c1cnn(-c2cccc3ncccc23)c1C1CC1 [zoniporide]
proliferation in PSOKCs [2]: recapitulated benzamil's significant capacity to reduce proliferation
proliferation in PSOKCs ([2]; listed as Zoniporide): reduced proliferation in PSOKCs to levels observed by Benzamil
intracellular pH (PSOKCs): significantly reduced intracellular pH

Bromocriptine
signs of improvement (scaling, ulceration, erythema, epidermal thickening) (Rac1V12 transgenic mice; intraperitoneal 10 mg/kg every other day, 20 treatments, vs baseline): improved after treatment
